From ChEMBL document CHEMBL1144359, “Synthesis and antitumor activity of the hexacyclic camptothecin derivatives” (Bioorg Med Chem Lett, 2005) come the findings set out here.

The nature of data set [1]: In-vitro inhibitory concentration for human tumor HELA cell-line was determined using MTT assay after 3 days of incubation. The class given is functional, cell-based. As to conditions: 72 h. (In general: Formazan colour is commonly taken as a measure of viable cells.)
The test system of data set [2] is Bel-7402. Kind of data set: In-vitro inhibitory concentration for human tumor BEL-7402 cell-line was determined using MTT assay after 3 days of incubation. Type of data set: functional, cell-based. As to conditions: Bel-7402, 72 h.
Data set [3] can be described thus: In-vitro inhibitory concentration for human tumor HCT116 cell-line was determined using MTT assay after 3 days of incubation. The class given is functional, cell-based. As to conditions: HCT-116, 72 h.
Data set [4] concerns HL-60. Kind of data set: In-vitro inhibitory concentration for human tumor HL60 cell-line was determined using […] assay after 3 days of incubation. Type of data set: functional, cell-based. Particulars: HL-60, 72 h. Background: In SRB staining, fixed cells bind dye roughly in proportion to their protein.
The test system of data set [5] is Mus musculus. Description: Percent body weight change in mouse with tumor sarcoma-180 after intraperitoneal (i.p.) injection at a dose of 5 mg/Kg. The class given is functional.
The subject of data set [6] is Mus musculus. Description: Percent body weight change in mouse with tumor sarcoma-180 after intraperitoneal (i.p.) injection at a dose of 2.5 mg/Kg. Type of data set: functional.
The nature of data set [7]: Lethal toxicity in mouse with tumor sarcoma-180 after intraperitoneal (i.p.) injection at a dose of 5.0 mg/Kg of total 8 tested. Particulars: in vivo, ip.
Data set [8] relates to Mus musculus. Description: Average tumor weight in mouse with tumor sarcoma-180 after intraperitoneal (i.p.) injection at a dose of 5 mg/Kg. The class given is functional.
A short description of data set [9]: Lethal toxicity in mouse with tumor sarcoma-180 after intraperitoneal (i.p.) injection at a dose of 2.5 mg/Kg of total 8 tested. Particulars: in vivo, ip.
Data set [10] concerns Mus musculus. Kind of data set: Percent tumor-weight inhibition in mouse with tumor sarcoma-180 after intraperitoneal (i.p.) injection at a dose of 2.5 mg/Kg. Type of data set: functional.
In data set [11] the test system is Mus musculus. Kind of data set: Percent tumor-weight inhibition in mouse with tumor sarcoma-180 after intraperitoneal (i.p.) injection at a dose of 5 mg/Kg. The class given is functional.
In data set [12] the test system is Mus musculus. Kind of data set: Average tumor weight in mouse with tumor sarcoma-180 after intraperitoneal (i.p.) injection at a dose of 2.5 mg/Kg. Type of data set: functional.
The subject of data set [13] is Mus musculus. Kind of data set: Percent body weight change in mouse with tumor sarcoma-180 after intraperitoneal (i.p.) injection at a dose of 40 mg/Kg. Type of data set: functional.
For data set [14], the system named is Mus musculus. Description: Percent tumor-weight inhibition in mouse with tumor sarcoma-180 after intraperitoneal (i.p.) injection at a dose of 40 mg/Kg. Type of data set: functional.
Data set [15] in a line: Lethal toxicity in mouse with tumor sarcoma-180 after intraperitoneal (i.p.) injection at a dose of 40 mg/Kg of total 8 tested. Particulars: in vivo, ip.
The subject of data set [16] is Mus musculus. Description: Average tumor weight in mouse with tumor sarcoma-180 after intraperitoneal (i.p.) injection at a dose of 40 mg/Kg. The class given is functional.
For data set [17], the system named is Mus musculus. Description: Percent tumor-weight inhibition in mouse with tumor sarcoma-180 after intraperitoneal (i.p.) injection at a dose of 0.5 mg/Kg. The class given is functional.
Data set [18] is described as follows: Lethal toxicity in mouse with tumor sarcoma-180 after intraperitoneal (i.p.) injection at a dose of 0.5 mg/Kg of total 8 tested. Particulars: in vivo, ip.
The test system of data set [19] is Mus musculus. Description: Average tumor weight in mouse with tumor sarcoma-180 after intraperitoneal (i.p.) injection at a dose of 1 mg/Kg. Type of data set: functional.
In data set [20] the test system is Mus musculus. Description: Percent tumor-weight inhibition in mouse with tumor sarcoma-180 after intraperitoneal (i.p.) injection at a dose of 1 mg/Kg. The class given is functional.
A short description of data set [21]: Lethal toxicity in mouse with tumor sarcoma-180 after intraperitoneal (i.p.) injection at a dose of 1.0 mg/Kg of total 8 tested. Particulars: in vivo, ip.
Data set [22] has as its system Mus musculus. Description: Average tumor weight in mouse with tumor sarcoma-180 after intraperitoneal (i.p.) injection at a dose of 0.5 mg/Kg. Type of data set: functional.
For data set [23], the system named is Mus musculus. Description: Percent body weight change in mouse with tumor sarcoma-180 after intraperitoneal (i.p.) injection at a dose of 0.5 mg/Kg. Type of data set: functional.
Data set [24] relates to Mus musculus. Description: Percent body weight change in mouse with tumor sarcoma-180 after intraperitoneal (i.p.) injection at a dose of 1 mg/Kg. The class given is functional.
Data set [25] has as its system Mus musculus. Kind of data set: Percent body weight change in mouse with tumor sarcoma-180 after intraperitoneal (i.p.) injection at a dose of 75 mg/Kg. Type of data set: functional.
The test system of data set [26] is Mus musculus. Description: Percent tumor-weight inhibition in mouse with tumor sarcoma-180 after intraperitoneal (i.p.) injection at a dose of 75 mg/Kg. The class given is functional.
The nature of data set [27]: Lethal toxicity in mouse with tumor sarcoma-180 after intraperitoneal (i.p.) injection at a dose of 75 mg/Kg of total 10 tested. As to conditions: in vivo, ip.
Data set [28] relates to Mus musculus. Kind of data set: Average tumor weight in mouse with tumor sarcoma-180 after intraperitoneal (i.p.) injection at a dose of 75 mg/Kg. The class given is functional.

`CCc1c2c(nc3ccc4c(c13)CC(COC(C)=O)O4)-c1cc3c(c(=O)n1C2)COC(=O)[C@]3(O)CC` (some centres not stated): the IC50 (usually the concentration needed to halve the response being measured) in data set [1] turned out to be 14 nM; in data set [2], 11 nM; in data set [3], 0.52 nM; in data set [4] it was 9.1 nM.

`CC[C@@]1(O)C(=O)OCc2c1cc1n(c2=O)Cc2cc3c4c(ccc3nc2-1)OC(O)C4` (some centres not stated): the values for the BWC in data set [5] and in data set [6] were -31% and 5%, respectively. Also, the “No. of mice dead” value in [7] and in data set [9] was 0 throughout. For the same molecule, the TW in data set [8] came to 0.05; in [12], 0.45. The IC50 in data set [2] stood at 2.6 nM; in [3], 3.2 nM; in data set [4] it was 8.4 nM. Moreover, the TWI in data set [10] is 70%; in data set [11], 97%.

As for `CCc1c2c(nc3ccc(O)cc13)-c1cc3c(c(=O)n1C2)COC(=O)[C@]3(O)CC` [7-ETHYL-10-HYDROXYCAMPTOTHECIN], the IC50 was 22 nM in data set [1], 13 nM in data set [2], 3.3 nM in data set [3] and 19 nM in data set [4].

`CCc1c2c(nc3ccc4c(c13)CC(CO)O4)-c1cc3c(c(=O)n1C2)COC(=O)[C@]3(O)CC` (some centres not stated): the IC50 amounted to 23 nM in [1], 7.8 nM in [2], 3.8 nM in data set [3] and 7.1 nM in [4].

Turning to `CCc1c2c(nc3ccc(OC(=O)N4CCC(N5CCCCC5)CC4)cc13)-c1cc3c(c(=O)n1C2)COC(=O)[C@]3(O)CC` [IRINOTECAN], the BWC in [13] is recorded as -28%. Also, the TWI in [14] is 99.4%. Moreover, the “No. of mice dead” value in data set [15] is on record as 0. The molecule also showed a TW in [16] of 0.01.

On to `CC[C@@]1(O)C(=O)OCc2c1cc1n(c2=O)Cc2cc3c4c(ccc3nc2-1)OC(CO)C4` (some centres not stated), for which the concentration for half-maximal inhibition (IC50) worked out at 25 nM in data set [1], 19 nM in data set [2], 2.6 nM in [3] and 8.7 nM in [4].

For `CC[C@@]1(O)C(=O)OCc2c1cc1n(c2=O)Cc2cc3c(ccc4occc43)nc2-1`, the results for the TWI in data set [17] and in data set [20] were 85% and 98%, respectively. The “No. of mice dead” value in data set [18] and in data set [21] was 0 in each case. The 50% inhibitory concentration (IC50) was 15 nM in data set [1], 1.6 nM in [2], 1.6 nM in [3] and 3 nM in data set [4]. In addition, the TW in data set [19] was 0.03; in data set [22] it was 0.23. For the same molecule, the BWC in data set [23] is given as 26%; in data set [24], -34%.

Regarding `CC[C@@]1(O)C(=O)OCc2c1cc1n(c2=O)Cc2cc3c4c(ccc3nc2-1)OC(COC(C)=O)C4` (some centres not stated), the 50% inhibitory concentration (IC50) was determined as 11 nM in data set [1], 15 nM in data set [2], 4.3 nM in [3] and 11 nM in data set [4].

With `O=c1[nH]cc(F)c(=O)[nH]1` [FLUOROURACIL], in data set [25], the BWC is reported as 31%. Moreover, the TWI in data set [26] was determined as 86%. Moreover, in [27], the “No. of mice dead” value is on record as 0. This molecule gave a TW in data set [28] of 0.22.

With `CC[C@@]1(O)C(=O)OCc2c1cc1n(c2=O)Cc2cc3c4c(ccc3nc2-1)OC(C)C4` (some centres not stated), the IC50 in data set [1] amounted to 10 nM; in [2], 7.4 nM; in data set [3] it was 4.9 nM; in data set [4], 3.1 nM.

In the case of `CCc1c2c(nc3ccc4c(c13)CC(O)O4)-c1cc3c(c(=O)n1C2)COC(=O)[C@]3(O)CC` (some centres not stated), the IC50 was found to be 20 nM in [1], 4.4 nM in data set [2], 1.4 nM in data set [3] and 4.2 nM in [4].

Turning to `CCc1c2c(nc3ccc4c(c13)CC(C)O4)-c1cc3c(c(=O)n1C2)COC(=O)[C@]3(O)CC` (some centres not stated), the IC50 in [1] worked out at 19 nM; in [2], 7.5 nM; in data set [3], 2.6 nM; in data set [4], 4.9 nM.

As to `CCc1c2c(nc3ccc4occc4c13)-c1cc3c(c(=O)n1C2)COC(=O)[C@]3(O)CC`, the IC50 in data set [1] came to 2.3 nM; in data set [2], 2.6 nM; in data set [3] it was 1.7 nM; in data set [4] it was 0.28 nM.
